Data from publication PMC9916441, “Resveratrol Derivative Exhibits Marked Antiproliferative Actions, Affecting Stemness in Pancreatic Cancer Cells” (International Journal of Molecular Sciences, 2023).
Where two headings read alike, the source gives them in different places.

Legend:
[1] = tested on: AsPC-1; assay: MTT cell viability assay; type: cell-based, human
Protocol: (§1) The cell viability was assessed using MTT assay, as previously described. Briefly, the cells were seeded in 96-well plates (4 × 10^3 cells/well) and were treated for 72 h with different concentrations of RSV, DF5, and DF12. The IC50 values were extrapolated from dose–response curves and calculated using the CompuSyn software (https://www.combosyn.com/). The selectivity index (SI) values were calculated as ratios between the IC50 values of compounds in normal HFF-1 fibroblast cells and the IC50 values of the same compounds in the PC cell lines.

[2] = tested on: BxPC-3; assay: MTT cell viability assay; type: cell-based, human
Protocol: as §1

[3] = tested on: Capan-2; assay: MTT cell viability assay; type: cell-based, human
Protocol: as §1

[4] = tested on: normal HFF-1 fibroblast cells; assay: MTT cell viability assay on normal fibroblasts; type: cell-based, human; conditions: 72 h
Protocol: as §1

[5] = tested on: AsPC-1, BxPC-3 and Capan-2 PC cell lines; assay: Cell growth, trypan blue exclusion test; type: cell-based, human; conditions: 50 μM, counted at 24, 48 and 72 h, three PC cell lines, vs control
Protocol: The cell counting was performed using the trypan blue exclusion test. Briefly, PC cells were seeded in 24-well plates (5 × 10^4 cells/well) and then were treated with 50 μM of DF5, RSV, or with vehicle and counted at 24, 48, and 72 h.

[6] = tested on: AsPC-1; assay: Apoptosis assay, annexin-V staining by flow cytometry; type: cell-based, human; conditions: 24 h
Protocol: (§2) The apoptosis assay was performed essentially as previously described. the analyses were performed using a CytoFLEX flow cytometer, using the FL1 detector in linear mode and the CytoExpert software (Beckmann Coulter, Milano, Italy).

[7] = tested on: BxPC-3; assay: as above; type: cell-based, human; conditions: 24 h
Protocol: as §2

[8] = tested on: Capan-2; assay: as above; type: cell-based, human; conditions: 24 h
Protocol: as §2

[9] = tested on: poly-(ADP-ribose) polymerase (PARP); assay: Western blot of PARP cleavage in PC cell lines; type: cell-based, human; conditions: vs untreated cells
Protocol: (§3) The PC cell lines treated with 50 μM DF5, RSV, or with vehicle (DMSO) were lysed in a cell lysis buffer containing PMSF, protease inhibitors cocktails, and phosphatase inhibitors. The protein lysate quantification and immunoblot analyses were performed as previously described.

[10] = tested on: AsPC-1, BxPC-3 and Capan-2 PC cell lines; assay: Cell cycle analysis by flow cytometry; type: cell-based, human; conditions: 50 μM, 24 h
Protocol: To perform the cell cycle analysis, the PC cells (3 × 10^5) were collected, fixed in 70% cold ethanol, and kept at 4 °C overnight. The collected cells were incubated at 4 °C overnight in 5 μg/mL PI (final concentration) and 100 μg/mL RNAse (final concentration). The cell cycle profiles were analyzed as previously described.

[11] = tested on: Cyclin D3; assay: Western blot of cyclin D3 in PC cell lines; type: cell-based, human; conditions: 50 μM
Protocol: as §3

[12] = Water solubility; type: physicochemical
Protocol: The solubility was determined as previously described. The calculated LogP (cLogP) value was determined using ACD LogP software package, version 4.55 (Advanced Chemistry Development Inc., Toronto, ON, Canada).

[13] = Enzymatic stability in simulated gastric fluid (SGF) with pepsin; type: in vitro ADME; conditions: SGF pH 1.2 with pepsin, 37 °C
Protocol: The SGF and SIF, containing pepsin and pancreatin, respectively, were prepared following the USP specifications. The reactions were carried out in a shaking water bath at 37 °C. The drug stock solution (10 μL of a 10^−4 M) was added to the preheated gastrointestinal fluids and, at fixed time points (0, 15, 30, and 60 min for SGF and 0, 60, 120, and 180 min for SIF), 20 μL of the media were mixed with 200 μL of cold acetonitrile containing 0.5% v/v of formic acid. The samples were centrifuged for 10 min at 5000× g and the supernatants were analyzed using HPLC. The relative difference (RD%) was used to predict the amount of compound decomposed in the presence of gastrointestinal fluids.

[14] = Human plasma stability assay; type: in vitro ADME; conditions: 80% human plasma, 37 °C
Protocol: The in vitro enzymatic stabilities of DF5 were assessed in human plasma and simulated gastric and intestinal fluids (SGF and SIF, respectively). For the human plasma stability assay, 10 μL of a 10^-4 M stock solution of DF5 in acetonitrile was added to a pre-heated (37 °C) plasma fraction and diluted with phosphate buffer (pH 7.4, 0.02 M) to obtain a final volume of 1 mL (80% plasma). The samples (50 µL) were extracted at various times and 200 µL of cold acetonitrile containing 0.5% v/v of formic acid were employed to stop the enzymatic reaction. After centrifugation for 10 min at 5000 g, the supernatant was removed and analyzed using HPLC [57].

[15] = PAMPA-GI permeability; type: in vitro ADME; conditions: for Papp at 16 h, 500 µM: PAMPA, 16 h incubation, read-out: Permeability, Pe
Protocol: A PAMPA was used to evaluate the passive intestinal absorption of DF5. The system consisted in a 96-well, MultiScreen-IP PAMPA filter plate (donor plate) equipped with a PVDF membrane filter and a 96-well PTFE acceptor plate. The PVDF membrane was coated with 5 µL of a 2% w/v lecithin in n-dodecane solution. […] Donor and acceptor solutions, both containing 5% of DMSO v/v%, were employed to avoid precipitation of the drug. The system was assembled placing the drug-filled donor plate into the acceptor plate and incubated at room temperature for 16 h. Each solution was analyzed using HPLC and the permeability (Pe, nm/s) was determined as previously reported.

With Cc1ccc(/C=C/c2ccc(O)cc2)cc1 [DF5] the IC50 ([1]; Homo sapiens, ASPC1, AsPC-1, MTT, 72 h) was 14.7 µM, the “Selectivity Index (SI) AsPC-1” value ([1]; SI = IC50 on normal HFF-1 fibroblast cells/IC50 on AsPC-1) was > 6.79 and the IC50 ([2]; Homo sapiens, BxPC-3, MTT, 72 h) was 22.7 µM. The “Selectivity Index (SI) BxPC-3” value ([2]; SI = IC50 on normal HFF-1 fibroblast cells/IC50 on BxPC-3) was > 4.41, the “effect on cell viability at maximum tested concentration” value ([3]; Capan-2, MTT, 100 µM) was “almost complete loss of cell viability” and the IC50 ([3]; Homo sapiens, Capan-2, MTT, 72 h) was 27.8 µM. The “Selectivity Index (SI) Capan-2” value ([3]; SI = IC50 on normal HFF-1 fibroblast cells/IC50 on Capan-2) was > 3.60, the “toxicity against normal HFF-1 fibroblast cells” value ([4]; up to 100 μM) was “negligible toxicity” and the IC50 ([4]; Homo sapiens, normal HFF-1 fibroblasts, 100 μM highest concentration used) was > 100 µM. For the same compound, the “effect on cell growth (cell number)” value [5] was “significantly, drastically, and comparably affected cell growth”, the “apoptosis induction (Annexin V+ cells)” value ([6]; AsPC-1, 20 μM) was “statistically significant apoptosis” and the “apoptosis induction (Annexin V+ cells)” value ([6]; AsPC-1, 50 μM) was “significant induction of apoptosis”. The “apoptosis induction (Annexin V+ cells)” value ([7]; BxPC-3, 20 μM) was “neither compound affected apoptosis”, the “apoptosis induction (Annexin V+ cells)” value ([7]; BxPC-3, 50 μM) was “significant induction of apoptosis” and the “apoptosis induction (Annexin V+ cells)” value ([8]; Capan-2, 20 μM) was “statistically significant apoptosis”. For the same compound, the “apoptosis induction (Annexin V+ cells)” value ([8]; Capan-2, 50 μM) was “significant induction of apoptosis”, the “effect on cleaved:uncleaved PARP ratio” value ([9]; AsPC-1, 50 μM) was “strong increase in cleaved:uncleaved PARP ratios” and the “effect on cleaved:uncleaved PARP ratio” value ([9]; BxPC-3, 50 μM) was “minimal effects on the PARP cleavage ratio”. The “effect on cleaved:uncleaved PARP ratio” value ([9]; Capan-2, 50 μM) was “strong increase in cleaved:uncleaved PARP ratios”, the “effect on cells in G0/G1 phase” value ([10]; across the three PC cell lines, vs untreated cells) was “statistically significant accumulation of cells at the G0/G1 phase” and the “effect on cells in G2/M phase” value ([10]; three PC cell lines, in Capan-2 it did not reach statistical significance) was “drastic depletion of cells in the G2/M phase”. The “effect on cyclin D3 expression” value [11] was “clear-cut reduction or even an abolishment in the expression of cyclin D3”, the solubility ([12]; read-out: Classification (water solubility)) was < 100 µg/mL and the solubility ([12]; read-out: Water Solubility) was < 10 µg/mL. For the same compound, the “RD% (relative difference)” value ([13]; 15 min) was 4.36%, the “RD% (relative difference)” value ([13]; 30 min) was 7.10% and the “RD% (relative difference)” value ([13]; 60 min) was 8.87%. For the same compound, the “stability in human plasma” value [14] was “stable (stable: RD% < 5%)”, the Papp at 16 h, 500 µM ([15]; pH 5 (donor and acceptor)) was 6.02 ×10⁻⁶ cm/s and the Papp at 16 h, 500 µM ([15]; pH 6.5 (donor and acceptor)) was 9 ×10⁻⁶ cm/s. The Papp at 16 h, 500 µM ([15]; pH 7.4 (donor and acceptor)) was 2.59 ×10⁻⁶ cm/s, the “Classification (GI permeation)” value ([15]; pH 5) was “Pe+ (Pe+ (indicative of high GI permeation): Pe (nm s^−1) > 10)” and the “Classification (GI permeation)” value ([15]; pH 6.5) was “Pe+ (Pe+ (indicative of high GI permeation): Pe (nm s^−1) > 10)”. For the same compound, the “Classification (GI permeation)” value ([15]; pH 7.4) was “Pe+ (Pe+ (indicative of high GI permeation): Pe (nm s^−1) > 10)”.
